# Legend:
# Type in all cases: in vivo
# [1] = test system: Lygus Bug [Lygus hesperus (Knight)]; assay: Lygus Bug spray; details: spray on adult bugs; mortality after 48 hours
# Description: Test compounds are in a 50--50 acetone-water solution. Two cc of the solutions are sprayed through a Devilbiss type EGA hand spray gun into circular cardboard cages containing one string bean pod and ten adult lygus bugs. The test cages are covered on the bottom with cellophane and the top with tulle netting. Percent mortality is recorded 48 hours later. Test concentrations range from 0.05% down to that at which approximately 50% mortality occurs.
# [2] = test system: Southern House Mosquito [Culex pipiens quinquefasciatus (Say)]; assay: Southern House Mosquito larvae in aqueous solution; details: 48 h, read-out: Insecticide Activity - Approximate LD50, MOS (Southern House Mosquito)
# Description: Insecticidal activity is determined using third-instar larvae of the mosquito (Culex pipiens quinquefasciatus). Ten larvae are placed in a 6-ounce, number 67 Dixie wax paper cup containing 100 ml of an aqueous solution of the test chemical. The treated larvae are stored at 70°F, and 48 hours later the mortality is recorded. Test concentrations range from 0.5 PPM down to that at which approximately 50% mortality occurs.
# [3] = test system: Black Bean Aphid [Aphis fabae (Scop.)]; assay: Systemic Assay on Black Bean Aphid; details: 168 h, systemic, chemical in soil, mortality after 7 days, read-out: Insecticide Activity - Approximate LD50, BAS (Black Bean Aphid - systemic)
# Description: Test chemicals are diluted in acetone and aliquots are thoroughly mixed into 500 grams of dry, sandy loam soil. The treated soil is placed in a pint ice cream carton and a nasturtium plant (Tropaeolum sp.) approximately 5 cm tall is transplanted into each carton. The plants are then infested with approximately 25 black bean aphids of mixed ages and placed in the greenhouse. Seven days later mortality is recorded. Test concentrations range from 10 PPM down to that at which approximately 50% mortality occurs.
# [4] = test system: Cabbage Looper [Trichoplusia ni (Hubner)]; assay: Cabbage Looper on dipped squash cotyledons; details: second-instar larvae, cotyledon dip; 48 hours plus 5 days
# Description: (§1) Test compounds are diluted in a 50--50 acetone-water solution. Cotyledons of hyzini squash (Calabacita abobrinha), approximately 1 × 1.5 inches, are immersed in the test solutions for 2-3 seconds and placed on a wire screen to dry. The dried leaves are placed in petri dishes containing a moistened piece of filter paper and infested with five second-instar cabbage looper larvae. Mortality of the larvae is recorded 48 hours later, and a piece of synthetic media is added to dishes containing survivors. These are then held for 5 additional days to observe for any delayed effects of the test chemicals. Test concentrations range from 0.1% down to that at which approximately 50% mortality occurs.
# [5] = test system: Black Bean Aphid [Aphis fabae (Scop.)]; assay: Direct Spray Assay on Black Bean Aphid; details: direct spray on nasturtium plants; mortality after 7 days
# Description: Nasturtium plants (Tropaeolum sp.), approximately 5 cm tall, are transplanted into sandy loam soil in 3-inch clay pots and infested with 25-50 black bean aphids of mixed ages. Twenty-four hours later they are sprayed, to the point of runoff, with 50--50 acetone-water solutions of the test chemicals. Treated plants are held in the greenhouse and mortality is recorded after 7 days. Test concentrations range from 0.05% down to that at which 50% mortality occurs.
# [6] = test system: Tobacco Budworm [Heliothis virescens (F.)]; assay: Tobacco Budworm on dipped Romaine lettuce leaves; details: larvae, Romaine lettuce leaf dip; 48 hours plus 5 days
# Description: as §1
# The procedure is the same as that used for the cabbage looper, except that sections of Romaine lettuce (Latica sativa) leaves were used instead of cotyledons of hyzini squash.
# [7] = test system: Green Peach Aphid [Myzus persicae (Sulzer)]; assay: Green Peach Aphid spray on radish plants; details: sprayed to runoff on radish plants; mortality after 48 hours
# Description: Radish plants (Rhaphanus sativus), approximately 2 cm tall, are transplanted into sandy loam soil in 3-inch clay pots and infested with 25-50 green peach aphids of mixed ages. Twenty-four hours later they are sprayed, to the point of runoff, with 50--50 acetone-water solutions of the test chemicals. Treated plants are held in the greenhouse and mortality is recorded after 48 hours. Test concentrations range from 0.05% down to that at which 50% mortality occurs.
# [8] = test system: German Cockroach [Blattella germanica (Linne)]; assay: German Cockroach spray; details: spray on 1-month-old nymphs; mortality after 7 days
# Description: Test compounds are diluted in a 50--50 acetone-water solution. Two cc of the solutions are sprayed through a DeVilbiss type EGA hand spray gun into circular cardboard cages containing 10 l-month-old German cockroach nymphs. The test cages are covered on the bottom with cellophane and the top with tulle netting. Percent mortality is recorded 7 days later. Test concentrations range from 0.1% down to that at which approximately 50% mortality occurs.
# [9] = test system: housefly (Musca domestica L.); assay: Housefly mortality, residue on aluminum dishes; details: 25 3-day old female houseflies; mortality after 48 hours
# Description: Test compounds are diluted in acetone and aliquots are pipetted onto the bottom of 55 × 15 mm aluminum dishes. To insure even spreading of the chemical on the bottom of the dishes, 1 ml of acetone containing 0.02% peanut oil is also added to each dish. After all solvents have evaporated the dishes are placed in circular cardboard cages containing 25 3-day old female houseflies. The cages are covered on the bottom with cellophane and the top with tulle netting, and each contains a sugar-water saturated cotton plug for maintenance of the flies. Mortality is recorded after 48 hours. Test levels range from 100 μg/25 F. houseflies down to that at which approximately 50% mortality occurs.
SMILES,"Insecticide Activity - Approximate LD50, LB (Lygus Bug) [1]",LC50 [2],LC50 [3],"Insecticide Activity - Approximate LD50, CL (Cabbage Looper) [4]","Insecticide Activity - Approximate LD50, BA (Black Bean Aphid - direct spray) [5]","Insecticide Activity - Approximate LD50, TBW (Tobacco Budworm) [6]","Insecticide Activity - Approximate LD50, GPA (Green Peach Aphid) [7]","Insecticide Activity - Approximate LD50, GR (German Cockroach) [8]","Insecticide Activity - Approximate LD50, HF (Housefly) [9]"
CCOP(=S)(OCC)SCC(=O)N=C(OC)N(CC)CC [Compound 5],> .05%,> 1 mg/L,> 10 mg/L,> .1%,.001%,> .1%,.03%,.1%,23 μg/25 F.
CCN(CC)C(=NC(=O)CSP(=S)(OC)OC)OC [Compound 6],> .05%,> 1 mg/L,–,> .1%,.05%,> .1%,> .05%,> .1%,24 μg/25 F.
CCOP(=S)(OCC)SCC(=O)N=C(OC)N1CCCCC1 [Compound 3],.05%,1 mg/L,> 10 mg/L,> .1%,.001%,> .1%,.008%,> .1%,25 μg/25 F.
"CCOP(=S)(OCC)SCC(=O)N=C(OC)N1CCOCC1 [Compound 4, N-morpholino-N'-(O,O-diethylphosphorodithioylacetyl)-O-methylisourea]",.05%,> 1 mg/L,5 mg/L,–,.0008%,–,> .05%,> .1%,27 μg/25 F.
C=CCN(C(=NC(=O)CSP(=S)(OCC)OCC)OC)c1ccccc1 [Compound 10],.05%,> 1 mg/L,–,> .1%,> .05%,> .1%,–,> .1%,10 μg/25 F.
COC(=NC(=O)CSP(=S)(OC)OC)N(C)Cc1ccccc1 [Compound 13],> .05%,> 1 mg/L,–,> .1%,> .05%,> .1%,–,> .1%,30 μg/25 F.
CCOP(=S)(OCC)SCC(=O)N=C(OC)N(CC)c1cccc(C)c1 [Compound 18],> .05%,> 1 mg/L,5 mg/L,> .1%,.0005%,.1%,.005%,.1%,22 μg/25 F.
"C=CCN(CC=C)C(=NC(=O)CSP(=S)(OCC)OCC)OC [Compound 1, N,N-Diallyl-N'-(O,O-diethylphosphorodithioylacetyl)-O-methylisourea]",.05%,1 mg/L,3 mg/L,–,.003%,–,> .05%,> .1%,10 μg/25 F.
C=CCN(CC=C)C(=NC(=O)CSP(=S)(OC)OC)OC [Compound 2],> .05%,> 1 mg/L,5 mg/L,–,.008%,–,–,> .1%,8 μg/25 F.
CCOP(=S)(OCC)SCC(=O)N=C(OC)N(CC)c1ccccc1 [Compound 15],> .05%,> 1 mg/L,2 mg/L,.1%,.005%,> .1%,.03%,> .1%,30 μg/25 F.
CCN(C(=NC(=O)CSP(=S)(OC)OC)OC)c1ccccc1 [Compound 16],> .05%,> 1 mg/L,> 10 mg/L,.1%,.03%,> .1%,–,> .1%,25 μg/25 F.
CCOP(=S)(OCC)SCC(=O)N=C(OC)N(C)Cc1ccccc1 [Compound 12],> .05%,> 1 mg/L,–,> .1%,> .05%,> .1%,–,> .1%,24 μg/25 F.

# Source: patent publication US3984410A, “Isourea acetylphosphate insecticides” (priority 1975, dated 1976)
